Here are results for 16 compounds from patent US7759344B2, “Bis-aryl amide derivatives and methods of use” (priority 2007, dated 2010).

As usually defined, the Ki is a measure of affinity in units of concentration, obtained from inhibition or displacement. Low readings indicate a stronger hold on the target, high ones a looser hold on the target.

This experiment deals with T1, c-Met (Homo sapiens, UniProt P08581).
T1 construct: A PCR product covering residues 1058-1365 of c-Met (c-Met kinase domain) is generated; made in house; host or cells: Baculovirus cells (baculovirus/insect-cell expression)
T1 sequence (P08581 1058-1365): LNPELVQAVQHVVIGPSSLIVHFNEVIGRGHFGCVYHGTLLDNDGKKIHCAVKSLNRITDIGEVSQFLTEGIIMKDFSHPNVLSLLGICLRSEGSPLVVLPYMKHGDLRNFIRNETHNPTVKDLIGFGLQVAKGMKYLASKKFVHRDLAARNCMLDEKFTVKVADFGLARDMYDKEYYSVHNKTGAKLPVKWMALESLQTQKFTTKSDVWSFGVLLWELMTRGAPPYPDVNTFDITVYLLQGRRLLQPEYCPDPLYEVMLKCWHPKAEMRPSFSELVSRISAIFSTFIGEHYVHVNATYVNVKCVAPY
Nature of the experiment: c-Met Receptor Assay (HTRF kinase assay with GST-cMet (P) enzyme, gastrin and ATP). The experiment is classed as biochemical. The protocol:
Cloning, Expression and Purification of c-Met Kinase Domain
Alternative purification of human GST-cMET from Baculovirus cells
The resin is washed with 10 column volumes (100 mL) of Lysis Buffer. […] The elution is collected as 15 mL fractions. Aliquots of the elution fractions are run on SDS PAGE (12% Tris Glycine gel, Invitrogen, #EC6005BOX). The gel is stained with 0.25% Coomassie Blue stain. Fractions with GST-cMET are concentrated with a Vivaspin 20 mL Concentrator (#VS2002; […]) to a final volume less than 2.0 ml. […] The GST-cMET is eluted with an isocratic run of the above buffer, with the eluent collected in 1.0 mL fractions. Fractions with significant OD280 readings are run on another 12% Tris Glycine gel. The peak tubes with GST-cMET are pooled and the OD280 is read with the column buffer listed above as the blank buffer. • Phosphorylation of the purified GST-cMET is performed by incubating the protein for 3 h at RT with the following:
After incubation, the solution is concentrated in a Vivaspin 20 ml Concentrator to a volume less than 2.00 ml. The solution is applied to the same Superdex 75 16/60 column used above after re-equilibration. The GST-cMET is eluted as described above. The elution fractions corresponding to the first eluted peak on the chromatogram are run on a 12% Tris Glycine gel, as above, to identify the fractions with GST-cMET. Fractions are pooled and the OD280 is read with the column buffer used as the blank.
A Kinase reaction Buffer is prepared as follows:
When the assay is carried out, freshly add:
The HTRF Buffer Contains: • 50 mM Tris-HCl (pH 7.5), 100 mM NaCl, 0.1% BSA, 0.05% Tween 20,5mM EDTA
Dilute GST-cMet (P) Enzyme in Kinase Buffer as Follows:
2. Assay Plate Preparation:
Then incubate the plate at RT for 30 min.
3. Prepare Gastrin and ATP working solution in kinase reaction buffer as follows:
Use Biomek FX to add 20 μl ATP and Gastrin working solution to the assay plate to start reaction, incubate the plate at RT for 1 h. 4. Transfer 5 μL reaction product at the end of 1 h into 80 μL HTRF buffer in black plate
In general terms: Time-resolved FRET reads energy transfer from a long-lived donor to a nearby acceptor.

`Cc1c(C(=O)Nc2ccc(-c3cccc4[nH]nc(N)c34)c(F)c2)c(=O)n(-c2ccccc2)n1C` [Example 1, N-(4-(3-amino-1H-indazol-4-yl)-3-fluorophenyl)-1,5-dimethyl-3-oxo-2-phenyl-2,3-dihydro-1H-pyrazole-4-carboxamide] had a Ki of 21 nM.

Take `Cc1c(C(=O)Nc2ccc(-c3cccc4c(N)nccc34)c(F)c2)c(=O)n(-c2ccccc2)n1C` [Example 2, N-(4-(1-amino-5-isoquinolinyl)-3-fluorophenyl)-1,5-dimethyl-3-oxo-2-phenyl-2,3-dihydro-1H-pyrazole-4-carboxamide]: the inhibition constant (Ki) amounted to 28 nM.

`Cc1c(C(=O)Nc2ccc(-c3cccc4c(N)nccc34)c(F)c2)c(=O)n(-c2ccccc2)n1CC(C)(C)O` [Example 3, N-(4-(1-amino-5-isoquinolinyl)-3-fluorophenyl)-1-(2-hydroxy-2-methylpropyl)-5-methyl-3-oxo-2-phenyl-2,3-dihydro-1H-pyrazole-4-carboxamide] had a Ki of 56 nM.

`Cc1c(C(=O)Nc2ccc(-c3cccc4cnccc34)c(F)c2)c(=O)n(-c2ccccc2)n1C` [Example 4, N-(3-fluoro-4-(5-isoquinolinyl)phenyl)-1,5-dimethyl-3-oxo-2-phenyl-2,3-dihydro-1H-pyrazole-4-carboxamide] returned a Ki of 73 nM.

`Cc1c(C(=O)Nc2ccc(-c3cccc4[nH]nc(N)c34)c(F)c2)c(=O)n(-c2ccccc2)n1CC(C)(C)O` [Example 5, N-(4-(3-amino-1H-indazol-4-yl)-3-fluorophenyl)-1-(2-hydroxy-2-methylpropyl)-5-methyl-3-oxo-2-phenyl-2,3-dihydro-1H-pyrazole-4-carboxamide] had a Ki of 85 nM.

Compound `Cc1c(C(=O)Nc2ccc(-c3cccc4cnccc34)c(F)c2)c(=O)n(-c2ccccc2)n1CC(C)(C)O` [Example 6, N-(3-fluoro-4-(5-isoquinolinyl)phenyl)-1-(2-hydroxy-2-methylpropyl)-5-methyl-3-oxo-2-phenyl-2,3-dihydro-1H-pyrazole-4-carboxamide] came in with a Ki of 142 nM.

`Cc1c(C(=O)Nc2ccc(-c3cccc4cnccc34)cc2F)c(=O)n(-c2ccccc2)n1CC(C)(C)O` [Example 7, N-(2-fluoro-4-(5-isoquinolinyl)phenyl)-1-(2-hydroxy-2-methylpropyl)-5-methyl-3-oxo-2-phenyl-2,3-dihydro-1H-pyrazole-4-carboxamide] had an inhibitory constant (Ki) of 156 nM.

With `Cc1c(C(=O)Nc2ccc(-c3cccc4[nH]nc(N)c34)cc2)c(=O)n(-c2ccccc2)n1CC(C)(C)O` [Example 8, N-(4-(3-amino-1H-indazol-4-yl)phenyl)-1-(2-hydroxy-2-methylpropyl)-5-methyl-3-oxo-2-phenyl-2,3-dihydro-1H-pyrazole-4-carboxamide], the affinity corresponds to a Ki of 252 nM.

Compound `Cc1c(C(=O)Nc2ccc(-c3nncc4cnccc34)c(F)c2)c(=O)n(-c2ccccc2)n1C` [Example 9, N-(3-fluoro-4-pyrido[3,4-d]pyridazin-1-ylphenyl)-1,5-dimethyl-3-oxo-2-phenyl-2,3-dihydro-1H-pyrazole-4-carboxamide] yielded a Ki of 2380 nM.

`Cc1cc(NC(=O)c2c(C)n(CC(C)(C)O)n(-c3ccccc3)c2=O)ccc1-c1cccc2cnccc12` [Example 10, 1-(2-Hydroxy-2-methylpropyl)-N-(4-(5-isoquinolinyl)-3-methylphenyl)-5-methyl-3-oxo-2-phenyl-2,3-dihydro-1H-pyrazole-4-carboxamide] gave an inhibition constant Ki of 373 nM.

`Cc1c(C(=O)Nc2ccc(-c3cccc4cnccc34)c(F)c2)c(=O)n(-c2ccccc2)n1C[C@H](C)O` [Example 11, N-(3-fluoro-4-(isoquinolin-5-yl)phenyl)-1-((S)-2-hydroxypropyl)-5-methyl-3-oxo-2-phenyl-2,3-dihydro-1H-pyrazole-4-carboxamide] showed a Ki of 47 nM.

In the case of `Cc1c(C(=O)Nc2ccc(-c3cccc4cnccc34)c(F)c2)c(=O)n(-c2ccccc2)n1C[C@@H](C)O` [Example 12, N-(3-fluoro-4-(isoquinolin-5-yl)phenyl)-1-((R)-2-hydroxypropyl)-5-methyl-3-oxo-2-phenyl-2,3-dihydro-1H-pyrazole-4-carboxamide], the Ki is 62 nM.

The compound `Cc1c(C(=O)Nc2ccc(-c3cccc4c(NCCCN5CCOCC5)nccc34)cc2)c(=O)n(-c2ccccc2)n1CC(C)(C)O` [Example 13, 1-(2-hydroxy-2-methylpropyl)-5-methyl-N-(4-(1-(3-morpholinopropylamino)-isoquinolin-5-yl)phenyl)-3-oxo-2-phenyl-2,3-dihydro-1H-pyrazole-4-carboxamide] showed a Ki of 3290 nM.

`Cc1c(C(=O)Nc2ccc(-c3cccc4c(NCCN(C)C)nccc34)cc2)c(=O)n(-c2ccccc2)n1CC(C)(C)O` [Example 14, N-(4-(1-(2-(dimethylamino)ethylamino)isoquinolin-5-yl)phenyl)-1-(2-hydroxy-2-methylpropyl)-5-methyl-3-oxo-2-phenyl-2,3-dihydro-1H-pyrazole-4-carboxamide] displayed a Ki of over 20000 nM.

Take `Cc1c(C(=O)Nc2ccc(-c3cccc4c(N(C)CCN(C)C)nccc34)cc2)c(=O)n(-c2ccccc2)n1CC(C)(C)O` [Example 15, N-(4-(1-((2-(dimethylamino)ethyl)(methyl)amino)isoquinolin-5-yl)phenyl)-1-(2-hydroxy-2-methylpropyl)-5-methyl-3-oxo-2-phenyl-2,3-dihydro-1H-pyrazole-4-carboxamide]: the Ki was over 6670 nM.

Regarding `Cc1c(C(=O)Nc2ccc(-c3cccc4c(N(C)CCCN(C)C)nccc34)cc2)c(=O)n(-c2ccccc2)n1CC(C)(C)O` [Example 16, N-(4-(1-((3-(dimethylamino)propyl)(methyl)amino)isoquinolin-5-yl)phenyl)-1-(2-hydroxy-2-methylpropyl)-5-methyl-3-oxo-2-phenyl-2,3-dihydro-1H-pyrazole-4-carboxamide], the Ki was 1450 nM.
